The values that follow come from patent publication US11524951B2, “2-(2,4,5-substituted-anilino)pyrimidine compounds” (AstraZeneca AB, priority 2011, dated 2022).

Usually IC50 stands for the point on the concentration scale where inhibition reaches its midpoint.

Common to all, as to format: cell-based
One assay has as its target T1, Exon19 deletion EGFR (Homo sapiens, UniProt P00533, DEL746-750).
T1 construct: Assays to measure cellular phosphorylation of endogenous p-EGFR in cell lysates; endogenous in cells; host or cells: PC9 (human lung cell line)
Kind of assay: Exon19 deletion EGFR (activating single mutant) cellular phosphorylation assay. The settings on record: PC9 human lung cells (Exon 19 deletion EGFR); endogenous p-EGFR in cell lysates by ELISA; 2 h with compound; read-out: Assay 1 (IC50). As to the method: Assay 1: Exon19 Deletion EGFR (Activating Single Mutant) Cellular Phosphorylation Assay
The human lung cell line PC9 (Exon 19 deletion EGFR) were obtained from the American type Culture Collection. […] Cells were grown in a humidified incubator at 37° C. with 5% CO2. Assays to measure cellular phosphorylation of endogenous p-EGFR in cell lysates were carried out according to the protocol described in the R&D Systems DuoSet IC Human Phospho-EGF R ELISA (R&D Systems catalogue number #DYC1095). 40 μL of cells were seeded (10000 cells/well) in growth medium in Corning black, clear-bottomed 384-well plates and incubated at 37° C. with 5% CO2 overnight. […] Plates were incubated for a further 2 h, then following aspiration of medium, 40 μL 1× lysis buffer was added to each well. Greiner black high bind 384-well plates were coated with capture antibody and then blocked with 3% BSA. Following removal of block, […], of lysate were transferred to the Greiner black high bind 384-well plates and incubated for 2 hours. Following aspiration and washing of the plates with PBS, 20 μL of detection antibody were added and incubated for 2 hours. […] The data obtained with each compound was exported into a suitable software package (such as Origin) to perform curve fitting analysis.

Another assay deals with T2, L858R/T790M EGFR (Homo sapiens, UniProt P00533, L858R/T790M).
T2 construct: Assays to measure cellular phosphorylation of endogenous p-EGFR in cell lysates; endogenous in cells; host or cells: NCI-H1975 (human lung cell line)
Kind of assay: L858R/T790M EGFR (double mutant) cellular phosphorylation assay. The settings on record: NCI-H1975 human lung cells; endogenous p-EGFR in cell lysates by ELISA; 2 h with compound. As to the method: Assay 2: L858R/T790M EGFR (Double Mutant) Cellular Phosphorylation Assay
The human lung cell lines NCI-H1975 were obtained from the American type Culture Collection. […] Cells were grown in a humidified incubator at 37° C. with 5% CO2.
Assays to measure cellular phosphorylation of endogenous p-EGFR in cell lysates were carried out according to the protocol described in the R&D Systems DuoSet IC Human Phospho-EGF R ELISA (R&D Systems catalogue number #DYC1095).
40 μL of cells were seeded (10000 cells/well) in growth medium in Corning black, clear-bottomed 384-well plates and incubated at 37° C. with 5% CO2 overnight. […] Plates were incubated for a further 2 h and following aspiration of medium, 40 μL 1× lysis buffer was added to each well. Greiner black high bind 384-well plates were coated with capture antibody and then blocked with 3% BSA. Following removal of block, 15 μL of lysate were transferred to the Greiner black high bind 384-well plates and incubated for 2 hours. Following aspiration and washing of the plates with PBS, 20 μL of detection antibody were added and incubated for 2 hours. […] 20 μL QuantaBlu stop solution were added to plates and fluorescence read on an Envision plate reader using
The data obtained with each compound was exported into a suitable software package (such as Origin) to perform curve fitting analysis.

In the next assay the target is T3, Wild-type EGFR (Homo sapiens, UniProt P00533).
T3 construct: Assays to measure cellular phosphorylation of endogenous p-EGFR in cell lysates; endogenous in cells; host or cells: LoVo (human colon cell line)
Kind of assay: Wild-type EGFR cellular phosphorylation assay. The settings on record: LoVo human colon cells; endogenous p-EGFR in cell lysates by ELISA; 2 h with compound, then stimulated 100 ng/ml for 10 minutes; read-out: Assay 3 (IC50). The procedure: Assay 3: Wild-Type EGFR Cellular Phosphorylation Assay
The human colon cell line LoVo were obtained from the American type Culture Collection. […] Cells were grown in a humidified incubator at 37° C. with 5% CO2. Assays to measure cellular phosphorylation of endogenous p-EGFR in cell lysates were carried out according to the protocol described in the R&D Systems DuoSet IC Human Phospho-EGF R ELISA (R&D Systems catalogue number #DYC1095). 40 μL of cells were seeded (15000 cells/well) in growth medium in Corning black, clear-bottomed 384-well plates and incubated at 37° C. with 5% CO2 overnight. […] Plates were incubated for a further 2 h then stimulated with 100 ng/ml for 10 minutes and following aspiration of medium, 40 μL 1× lysis buffer was added to each well. Greiner black high bind 384-well plates were coated with capture antibody and then blocked with 3% BSA. […] Following aspiration and washing of the plates with PBS, 20 μL of detection antibody were added and incubated for 2 hours. […] The data obtained with each compound was exported into a suitable software package (such as Origin) to perform curve fitting analysis.
On the technique in general: An ELISA detects its analyte on a solid surface through an enzyme-linked reagent.

T1 sequence (P00533 with tags, fused parts or gaps DEL746-750): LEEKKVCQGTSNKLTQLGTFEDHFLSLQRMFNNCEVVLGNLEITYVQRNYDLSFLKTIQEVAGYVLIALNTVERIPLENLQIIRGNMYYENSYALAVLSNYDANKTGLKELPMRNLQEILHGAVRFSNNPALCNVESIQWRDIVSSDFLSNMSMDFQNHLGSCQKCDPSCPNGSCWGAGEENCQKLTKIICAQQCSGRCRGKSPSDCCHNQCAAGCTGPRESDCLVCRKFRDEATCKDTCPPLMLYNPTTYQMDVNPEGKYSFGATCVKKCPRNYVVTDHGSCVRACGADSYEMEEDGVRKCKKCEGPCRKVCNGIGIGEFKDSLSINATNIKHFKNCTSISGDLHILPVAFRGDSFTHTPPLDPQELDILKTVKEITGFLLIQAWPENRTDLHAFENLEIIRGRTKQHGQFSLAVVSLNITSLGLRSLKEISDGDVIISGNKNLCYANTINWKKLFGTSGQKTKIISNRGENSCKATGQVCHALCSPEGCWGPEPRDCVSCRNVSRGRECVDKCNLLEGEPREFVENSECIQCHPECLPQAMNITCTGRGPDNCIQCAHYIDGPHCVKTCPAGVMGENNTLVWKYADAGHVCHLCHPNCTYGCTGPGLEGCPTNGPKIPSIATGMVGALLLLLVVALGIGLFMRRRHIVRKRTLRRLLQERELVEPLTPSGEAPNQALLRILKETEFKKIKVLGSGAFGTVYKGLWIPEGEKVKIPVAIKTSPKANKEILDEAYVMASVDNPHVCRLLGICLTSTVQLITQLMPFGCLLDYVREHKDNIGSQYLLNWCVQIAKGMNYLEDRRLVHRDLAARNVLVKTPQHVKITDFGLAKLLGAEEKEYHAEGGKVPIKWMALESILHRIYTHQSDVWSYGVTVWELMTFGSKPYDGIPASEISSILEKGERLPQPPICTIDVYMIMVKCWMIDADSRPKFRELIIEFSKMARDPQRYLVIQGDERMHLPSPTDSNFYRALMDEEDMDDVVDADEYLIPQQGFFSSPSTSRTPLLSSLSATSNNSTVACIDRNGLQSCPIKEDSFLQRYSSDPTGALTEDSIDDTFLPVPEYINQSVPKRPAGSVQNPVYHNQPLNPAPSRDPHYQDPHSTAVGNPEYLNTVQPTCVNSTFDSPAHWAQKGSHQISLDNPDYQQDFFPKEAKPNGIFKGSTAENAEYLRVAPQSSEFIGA
T3 sequence (P00533 25-1210): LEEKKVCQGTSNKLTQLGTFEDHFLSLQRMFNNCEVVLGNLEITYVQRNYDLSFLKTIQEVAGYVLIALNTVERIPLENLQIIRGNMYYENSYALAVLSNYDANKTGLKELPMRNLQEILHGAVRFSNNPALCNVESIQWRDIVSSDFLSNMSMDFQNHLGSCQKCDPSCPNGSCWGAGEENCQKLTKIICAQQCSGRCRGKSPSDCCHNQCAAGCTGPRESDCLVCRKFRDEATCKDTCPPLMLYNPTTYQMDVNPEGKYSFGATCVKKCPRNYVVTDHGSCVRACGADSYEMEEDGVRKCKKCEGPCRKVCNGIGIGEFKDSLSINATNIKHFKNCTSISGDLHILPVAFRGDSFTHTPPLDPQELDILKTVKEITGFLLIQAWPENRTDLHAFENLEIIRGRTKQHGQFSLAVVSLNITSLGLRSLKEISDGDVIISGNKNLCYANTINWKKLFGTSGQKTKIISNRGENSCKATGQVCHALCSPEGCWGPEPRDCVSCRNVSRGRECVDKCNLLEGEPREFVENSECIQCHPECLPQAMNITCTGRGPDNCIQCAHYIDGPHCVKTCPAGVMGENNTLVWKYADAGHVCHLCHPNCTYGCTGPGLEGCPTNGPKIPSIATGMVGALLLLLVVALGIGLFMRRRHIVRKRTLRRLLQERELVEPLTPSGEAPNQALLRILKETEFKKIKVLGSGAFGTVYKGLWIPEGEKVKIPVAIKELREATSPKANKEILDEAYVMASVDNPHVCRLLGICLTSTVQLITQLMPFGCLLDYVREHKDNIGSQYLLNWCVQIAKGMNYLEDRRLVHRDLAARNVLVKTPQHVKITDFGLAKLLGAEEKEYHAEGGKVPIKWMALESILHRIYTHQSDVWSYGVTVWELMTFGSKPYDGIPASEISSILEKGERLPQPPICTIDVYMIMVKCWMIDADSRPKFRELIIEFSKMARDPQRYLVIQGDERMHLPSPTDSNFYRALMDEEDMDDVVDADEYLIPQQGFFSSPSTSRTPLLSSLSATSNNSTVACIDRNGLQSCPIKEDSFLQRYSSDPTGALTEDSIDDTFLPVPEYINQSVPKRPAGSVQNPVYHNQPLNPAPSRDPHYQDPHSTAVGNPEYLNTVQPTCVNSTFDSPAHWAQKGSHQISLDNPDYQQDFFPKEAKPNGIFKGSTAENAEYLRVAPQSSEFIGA
T2 sequence (P00533 25-1210 T790M/L858R): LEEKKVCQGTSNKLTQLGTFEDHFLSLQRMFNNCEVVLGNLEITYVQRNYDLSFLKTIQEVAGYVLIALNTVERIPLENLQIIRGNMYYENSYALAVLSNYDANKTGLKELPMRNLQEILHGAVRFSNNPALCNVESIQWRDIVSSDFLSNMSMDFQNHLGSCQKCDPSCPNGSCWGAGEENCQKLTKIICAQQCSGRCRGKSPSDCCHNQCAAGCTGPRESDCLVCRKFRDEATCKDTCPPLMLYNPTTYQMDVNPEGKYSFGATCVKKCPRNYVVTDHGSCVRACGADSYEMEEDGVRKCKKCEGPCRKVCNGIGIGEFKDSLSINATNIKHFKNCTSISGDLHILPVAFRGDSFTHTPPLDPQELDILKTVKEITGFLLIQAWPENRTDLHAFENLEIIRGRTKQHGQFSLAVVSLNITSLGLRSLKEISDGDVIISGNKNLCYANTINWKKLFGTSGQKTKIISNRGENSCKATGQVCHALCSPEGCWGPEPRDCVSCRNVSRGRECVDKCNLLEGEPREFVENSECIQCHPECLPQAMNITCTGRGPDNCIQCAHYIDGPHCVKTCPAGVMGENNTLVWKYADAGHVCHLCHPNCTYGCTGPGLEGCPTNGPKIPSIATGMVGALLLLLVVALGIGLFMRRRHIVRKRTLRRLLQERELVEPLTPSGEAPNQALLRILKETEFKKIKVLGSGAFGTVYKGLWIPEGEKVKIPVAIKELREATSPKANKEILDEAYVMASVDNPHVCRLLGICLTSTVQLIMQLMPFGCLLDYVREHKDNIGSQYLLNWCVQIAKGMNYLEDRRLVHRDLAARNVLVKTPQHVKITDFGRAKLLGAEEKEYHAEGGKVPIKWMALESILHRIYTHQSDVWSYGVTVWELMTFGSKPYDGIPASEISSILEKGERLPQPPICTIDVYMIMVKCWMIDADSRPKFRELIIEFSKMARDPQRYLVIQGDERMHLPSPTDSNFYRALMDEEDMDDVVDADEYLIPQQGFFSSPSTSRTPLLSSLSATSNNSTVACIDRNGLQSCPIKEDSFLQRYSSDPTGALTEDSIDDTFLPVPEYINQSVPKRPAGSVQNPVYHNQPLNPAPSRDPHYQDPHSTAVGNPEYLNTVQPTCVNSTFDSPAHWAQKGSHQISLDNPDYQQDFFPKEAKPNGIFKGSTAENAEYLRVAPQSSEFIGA

As to `C=CC(=O)Nc1cc(Nc2ncc(C#N)c(-c3cnn4ccccc34)n2)c(OC)cc1N1CC[C@@H](N(C)C)C1` [Example 38, N-{5-[(5-Cyano-4-pyrazolo[1,5-a]pyridin-3-ylpyrimidin-2-yl)amino]-2-[(3R)-3-dimethylaminopyrrolidin-1-yl]-4-methoxyphenyl}prop-2-enamide], the IC50 at Exon19 deletion EGFR turned out to be 5.09 nM; at L858R/T790M EGFR, 4.41 nM; on Wild-type EGFR it was 538 nM.
On the same counts, the results for `C=CC(=O)Nc1cc(Nc2ncc(C#N)c(-c3cnn4ccccc34)n2)c(OC)cc1N(C)CCN(C)C` [Example 39, N-{5-[(5-Cyano-4-pyrazolo[1,5-a]pyridin-3-ylpyrimidin-2-yl)amino]-2-[2-dimethylaminoethyl-methylamino]-4-methoxyphenyl}prop-2-enamide] are 2.34 nM, 1.01 nM and 248 nM.
On the same counts, the results for `C=CC(=O)Nc1cc(Nc2ncc(C#N)c(-c3cnn4ccccc34)n2)c(OC)cc1N1CC(N(C)C)C1` [Example 40, N-{5-[(5-Cyano-4-pyrazolo[1,5-a]pyridin-3-ylpyrimidin-2-yl)amino]-2-[3-dimethylaminoazetidin-1-yl]-4-methoxyphenyl}prop-2-enamide] are 12.4 nM, 14.8 nM and above 30000 nM.
For `C=CC(=O)Nc1cc(Nc2nccc(-c3cn(C)c4ccccc34)n2)c(OC)cc1N1CC[C@@H]2CN(C)C[C@@H]21` [Example 41, N-(2-{(3aR,6aR)-5-Methyl-2,3,3a,4,6,6a-hexahydropyrrolo[3,4-b]pyrrol-1-yl}-4-methoxy-5-{[4-(1-methylindol-3-yl)pyrimidin-2-yl]amino}phenyl)prop-2-enamide], in that order: 28.6 nM, 29.5 nM and 1840 nM.
Regarding `C=CC(=O)Nc1cc(Nc2nccc(-c3cnn4c3CCCC4)n2)c(OC)cc1N(C)CCN(C)C` [Example 42, N-(2-{2-Dimethylaminoethyl-methylamino}-4-methoxy-5-{[4-(4,5,6,7-tetrahydropyrazolo[1,5-a]pyridin-3-yl)pyrimidin-2-yl]amino}phenyl)prop-2-enamide], the results for the IC50 on Exon19 deletion EGFR, at L858R/T790M EGFR and at Wild-type EGFR were 5.19 nM, 5.16 nM and 454 nM, respectively.
With `C=CC(=O)Nc1cc(Nc2nccc(-c3cnn4c3CCCC4)n2)c(OC)cc1N1CC[C@@H]2CN(C)C[C@@H]21` [Example 43, N-(2-{(3aR,6aR)-5-Methyl-2,3,3a,4,6,6a-hexahydropyrrolo[3,4-b]pyrrol-1-yl}-4-methoxy-5-{[4-(4,5,6,7-tetrahydropyrazolo[1,5-a]pyridin-3-yl)pyrimidin-2-yl]amino}phenyl)prop-2-enamide], the IC50 on Exon19 deletion EGFR was 18.2 nM; at L858R/T790M EGFR it was 10.6 nM; at Wild-type EGFR it was 1340 nM.
`C=CC(=O)Nc1cc(Nc2nccc(-c3cnn4c3CCCC4)n2)c(OC)cc1N1CC[C@@H](N(C)C)C1` [Example 44, N-(2-{(3R)-3-Dimethylaminopyrrolidin-1-yl}-4-methoxy-5-{[4-(4,5,6,7-tetrahydropyrazolo[1,5-a]pyridin-3-yl)pyrimidin-2-yl]amino}phenyl)prop-2-enamide]: the IC50 amounted to 33.3 nM on Exon19 deletion EGFR, 25.6 nM on L858R/T790M EGFR and 3640 nM on Wild-type EGFR.
As for `C=CC(=O)Nc1cc(Nc2nccc(-c3cnn4c3CCCC4)n2)c(OC)cc1C1=CCN(C)CC1` [Example 45, N-(4-Methoxy-2-{1-methyl-3,6-dihydro-2H-pyridin-4-yl}-5-{[4-(4,5,6,7-tetrahydropyrazolo[1,5-a]pyridin-3-yl)pyrimidin-2-yl]amino}phenyl)prop-2-enamide], the IC50 on Exon19 deletion EGFR was determined as 110 nM; at L858R/T790M EGFR, 41 nM; at Wild-type EGFR it was 7400 nM.
`C=CC(=O)Nc1cc(Nc2nccc(-c3cnn4c3CCCC4)n2)c(OC)cc1N1CC(N(C)C)C1` [Example 46, N-(2-{3-Dimethylaminoazetidin-1-yl}-4-methoxy-5-{[4-(4,5,6,7-tetrahydropyrazolo[1,5-a]pyridin-3-yl)pyrimidin-2-yl]amino}phenyl)prop-2-enamide]: the 50% inhibitory concentration (IC50) at Exon19 deletion EGFR is 129 nM; at L858R/T790M EGFR, 92.9 nM; on Wild-type EGFR, 7090 nM.
On the same counts, the results for `C=CC(=O)Nc1cc(Nc2nccc(-c3cnn4c3CCCC4)n2)c(OC)cc1N1CC2(CCCN2C)C1` [Example 47, N-(4-Methoxy-2-{8-methyl-2,8-diazaspiro[3.4]octan-2-yl}-5-{[4-(4,5,6,7-tetrahydropyrazolo[1,5-a]pyridin-3-yl)pyrimidin-2-yl]amino}phenyl)prop-2-enamide] are 194 nM, 119 nM and 15400 nM.
On the same counts, the results for `C=CC(=O)Nc1cc(Nc2nccc(-c3cn(C)c4ccccc34)n2)c(OC)cc1C1=CCN(C)CC1` [Example 48, N-(4-Methoxy-2-{1-methyl-3,6-dihydro-2H-pyridin-4-yl}-5-{[4-(1-methylindol-3-yl)pyrimidin-2-yl]amino}phenyl)prop-2-enamide] are 39.9 nM, 31 nM and 1580 nM.
For `C=CC(=O)Nc1cc(Nc2nccc(-c3cn(C)c4ccccc34)n2)c(OC)cc1N1CC2(CCCN2C)C1` [Example 49, N-(4-Methoxy-2-{8-methyl-2,8-diazaspiro[3.4]octan-2-yl}-5-{[4-(1-methylindol-3-yl)pyrimidin-2-yl]amino}phenyl)prop-2-enamide], the IC50 amounted to 74.2 nM on Exon19 deletion EGFR, 51 nM on L858R/T790M EGFR and 3090 nM at Wild-type EGFR.
With `C=CC(=O)Nc1cc(Nc2nccc(-c3cnn4ccccc34)n2)c(OC)cc1C1=CCN(C)CC1` [Example 51, N-{4-Methoxy-2-[1-methyl-3,6-dihydro-2H-pyridin-4-yl]-5-[(4-pyrazolo[1,5-a]pyridin-3-ylpyrimidin-2-yl)amino]phenyl}prop-2-enamide], the IC50 at Exon19 deletion EGFR turned out to be 13 nM; on L858R/T790M EGFR, 7.71 nM; on Wild-type EGFR, 462 nM.
As for `C=CC(=O)Nc1cc(Nc2nccc(-c3cnn4ccccc34)n2)c(OC)cc1N1CC[C@@H](N(C)C)C1` [Example 52, N-{2-[(3R)-3-Dimethylaminopyrrolidin-1-yl]-4-methoxy-5-[(4-pyrazolo[1,5-a]pyridin-3-ylpyrimidin-2-yl)amino]phenyl}prop-2-enamide], the IC50 at Exon19 deletion EGFR was determined as 26 nM; on L858R/T790M EGFR, 15 nM; on Wild-type EGFR, 1400 nM.
On the same counts, the results for `C=CC(=O)Nc1cc(Nc2nccc(-c3cnn4ccccc34)n2)c(OC)cc1N1CC(N(C)C)C1` [Example 53, N-{2-(3-Dimethylaminoazetidin-1-yl)-4-methoxy-5-[(4-pyrazolo[1,5-a]pyridin-3-ylpyrimidin-2-yl)amino]phenyl}prop-2-enamide] are 35.4 nM, 28.2 nM and 2640 nM.
On the same counts, the results for `C=CC(=O)Nc1cc(Nc2nccc(-c3cnn4ccccc34)n2)c(OC)cc1N(C)CCN(C)C` [Example 54, N-{2-[2-Dimethylaminoethyl-methylamino]-4-methoxy-5-[(4-pyrazolo[1,5-a]pyridin-3-ylpyrimidin-2-yl)amino]phenyl}prop-2-enamide] are 3.22 nM, 2.8 nM and 183 nM.
